In patent US20020086061A1 (priority 1999, published 2002):
Values after ≈ are worked out from the molar mass of the structure shown.

Columns and labels:
[1] = Aqueous solubility of felodipine; assay type: physicochemical
[2] = pH of excipient and felodipine suspensions before and after heat treatment (Example 11); assay type: physicochemical
Method: The heat treatment step involved heating the mixture at reflux for 15 minutes and allowing the mixture to stand over night.

| aqueous solubility ([1]; all pH levels) | solubility ([1]; aqueous media) [µg/mL] | SMILES | pH ([2]; Heat Treatment (reflux 15 minutes, stand over night)) | Δ pH ([2]; Heat Treatment versus Initial) | pH ([2]; Initial) |
| --- | --- | --- | --- | --- | --- |
| about 0.0001% | 0.5 (≈ 1.3 µM) | CCOC(=O)C1=C(C)NC(C)=C(C(=O)OC)C1c1cccc(Cl)c1Cl (racemic) [felodipine] |  |  |  |
|  |  | O=P([O-])([O-])O.[Ca+2] [Dibasic calcium phosphate (DCP), Dibasic calcium phosphate] | 4.07 | −3.32 | 7.39 |
